Laboratory results reported in US20250161337A1, “IMMUNOSUPPRESSIVE COMPOSITION CONTAINING L-AHG” (Kyungpook National University Industry-Academic Cooperation …, priority 2022, published 2025).

Experiments:
Type in all cases: cell-based, mouse
[1] = tested on: T cells activated with immobilized anti-CD3/anti-CD28; assay: [3H]-thymidine incorporation (proliferation) of G0 T cells activated with immobilized anti-CD3/anti-CD28; settings: for effect on [3H]thymidine incorporation of activated T cells: 25 to 400 μg/mL
Procedure: (§1) Isolation of resting (G0) T lymphocytes from spleens from 4-5-month-old C57BL/6J male mice was performed by a negative selection method from splenocytes using a T cell purification column kit (R&D Systems, Minneapolis, Minn., USA). At this time, the activation of G0 T cells was performed using a modification of the method of Kim et al., wherein pretreatment with rabbit anti-hamster IgG antibody (20 μg/mL) was performed so that the surface of the culture plastic container was smoothly coated with anti-CD3 (2.0 μg/mL) and anti-CD28 (2.0 μg/mL).
To evaluate the proliferation of T cells activated by immobilized anti-CD3/anti-CD28, 1×10^5 G0 T cells and each concentration of L-AHG together with 200 μL of RPMI 1640 complete medium were added to each well of a 96-well plate coated with anti-CD3 (2.0 μg/mL) and anti-CD28 (2.0 μg/mL), and activation of the cells was initiated by culture. At 29 hours after the activation, 0.25 μCi of [^3H]-thymidine was added to each well, and the amount of [^3H]-thymidine incorporated into the DNA of proliferating T cells was quantified by a liquid scintillation counter while the cells were further cultured for 12 hours.
First, using a 96-well plate, resting T cells (1×10^5 G0 T cells/well) were stimulated and activated with immobilized anti-CD3/anti-CD28 in the presence of various concentrations (0, 12.5, 25, 50, 100, 200, and 400 μg/mL) of L-AHG, NA2, NA4, or NA6. At 29 hours after the activation, 0.25 μCi of [^3H]thymidine was added to each well, followed by further culturing for an additional 12 hours. The amount of [^3H]thymidine incorporated into DNA following the T cell proliferation that occurred during this additional culturing time was quantified with a liquid scintillation counter, thereby determining the degree of T cell proliferation that occurred in each well.

[2] = tested on: IL-2; assay: IL-2 in culture supernatant of activated T cells, ELISA; settings: 25, 50, and 100 μg/mL; 30 h after activation
Procedure: (§2) To analyze the cell cycle of T cells activated by immobilized anti-CD3/anti-CD28 or to analyze the cytokine concentration in the culture supernatant, 3×10^6 G0 T cells and each concentration of L-AHG together with 2 mL of RPMI 1640 complete medium were added to each well of a 35-mm plate coated with anti-CD3 (2.0 μg/mL) and anti-CD28 (2.0 μg/mL), and activation of the cells was initiated by culture. At 30 hours after the activation, the culture was stopped and the cells and the culture supernatant were recovered by centrifugation.
(§3) After recovering the culture supernatant of T cells, the concentrations of IFN-γ, IL-2, IL-4 and IL-13 therein were analyzed using an ELISA kit (Mouse Uncoated Elisa Kit, Invitrogen) according to the manufacturer's instructions. […] The reaction was terminated by adding 100 μl of a reaction stop solution to each well, and the absorbances at wavelengths of 450 nm and 570 nm were measured with a Varioskan Lux Multimode Microplate Reader (Thermo Fisher Scientific). At this time, the value obtained by subtracting the absorbance measured at a wavelength of 570 nm from the absorbance measured at a wavelength of 450 nm was compared with a standard curve to determine the concentrations of cytokines present in the culture supernatant. […]

[3] = tested on: CD4 T cells; assay: First cell cycle progression of activated resting CD4 T cells, nocodazole arrest, DAPI flow cytometry
Procedure: as §1, §2
(§4) Under the same culture conditions, in order for the first cell cycle progression initiated by the activation of G0 T cells to be arrested in prometaphase by nocodazole treatment, T lymphocytes were activated for 20 hours, and then nocodazole was added thereto at a concentration of 0.2 μg/mL, followed by followed by further culturing for an additional 10 hours. After completion of the culturing, the culture was centrifuged to recover the cells and the culture supernatant.
(§5) Resting (G0) T cells isolated from mouse splenocytes using a T cell purification column kit (R & D) and T cells obtained by activating G0 T cells with immobilized anti-CD3/anti-CD28 for a given period of time were subjected to anti-CD3, anti-CD4, anti-CD8, and DAPI staining.
(§6) About 5×10^5 cells were suspended in 100 μL of 1×PBS/1% FBS solution, and then 0.5 μg of anti-CD3, 0.5 μg of anti-CD4, and 0.5 μg of anti-CD8 were added thereto and allowed to react at 4° C. for 15 minutes, followed by washing twice with 1×PBS/1% FBS solution. Subsequently, the cells were fixed with 1% paraformaldehyde solution at 4° C. for 15 minutes, and the fixed cells were washed twice with 1×PBS solution and then stained with 10 μM DAPI for 15 minutes. The stained cells were analyzed with an Attune NxT flow cytometer (Thermo Fisher Scientific, Waltham, MA, USA) to determine the proportions of CD3 T cells, CD4 T cells, and CD8 T cells and the cell cycle distribution based on the increase in blue fluorescence depending on the amount of DAPI bound to intracellular DNA.
To this end, resting T cells were stimulated and activated with immobilized anti-CD3/anti-CD28, and when these cells reached the time point at which S phase started following G0 exit and G1 entry and progression, that is, when 20 hours have elapsed after the activation, the microtubule depolymerization agent nocodazole (a cell cycle-arresting agent that arrests cell cycle progression of eukaryotic cells at the prometaphase of M phase) was added to the cells, followed by further culturing for 10 hours. Through this unique experimental method, the first cell cycle initiated following the activation of resting T cells was allowed to progress through the G1, S, and G2 phases, and then arrest in the prometaphase of M phase due to microtubule damage caused by the effect of nocodazole. Then, these cells were recovered, treated and stained with fluorescently labeled anti-CD4 antibody, fluorescently labeled anti-CD8 antibody, and the DNA fluorescent staining reagent DAPI, and analyzed with a flow cytometer. As a result, the present inventors investigated how the aspect of the first cell cycle progression (G1, S, and G2/M phases), which is initiated following the activation of resting CD4 T cells and resting CD8 T cells, is affected by L-AHG.

[4] = tested on: IFN-γ; assay: IFN-γ in culture supernatant of activated T cells, ELISA; settings: 30 h after activation
Procedure: as §2, §3

[5] = tested on: IL-13; assay: IL-13 in culture supernatant of activated T cells, ELISA; settings: 25, 50, and 100 μg/mL; 30 h after activation
Procedure: as §2, §3

[6] = tested on: IL-4; assay: IL-4 in culture supernatant of activated T cells, ELISA; settings: 30 h after activation
Procedure: as §2, §3

[7] = tested on: CD8 T cells; assay: First cell cycle progression of activated resting CD8 T cells, nocodazole arrest, DAPI flow cytometry
Procedure: as §1, §2, §4, §5, §6
To this end, resting T cells were stimulated and activated with immobilized anti-CD3/anti-CD28, and when these cells reached the time point at which S phase started following G0 exit and G1 entry and progression, that is, when 20 hours have elapsed after the activation, the microtubule depolymerization agent nocodazole (a cell cycle-arresting agent that arrests cell cycle progression of eukaryotic cells at the prometaphase of M phase) was added to the cells, followed by further culturing for 10 hours. […] Then, these cells were recovered, treated and stained with fluorescently labeled anti-CD4 antibody, fluorescently labeled anti-CD8 antibody, and the DNA fluorescent staining reagent DAPI, and analyzed with a flow cytometer. […]

[8] = 100 μg/mL, 30 h after activation, nocodazole from 20 h

**Q.** For `OC[C@H]1O[C@@H](O)[C@H](O)[C@@H](O[C@@H]2O[C@H]3CO[C@@H]([C@@H]2O)[C@@H]3O[C@@H]2O[C@H](CO)[C@H](O)[C@H](O[C@@H]3O[C@H]4CO[C@@H]([C@@H]3O)[C@@H]4O)[C@H]2O)[C@H]1O` [NA4, neoagarotetraose, reference compound], which “effect on [3H]thymidine incorporation of activated T cells” value (“effect on [3H]thymidine incorporation” for short) [1] is on record?
**A.** no significant effect

**Q.** Which “effect on [3H]thymidine incorporation” value [1] does the source give for `OC[C@H]1OC(O)[C@H](O)[C@@H](O[C@@H]2O[C@H]3CO[C@@H]([C@@H]2O)[C@@H]3O)[C@H]1O` (stereo partly drawn) [NA2, neoagarobiose, reference compound] here?
**A.** no significant effect

**Q.** How did the “effect on [3H]thymidine incorporation” value [1] turn out when `OC[C@H]1O[C@@H](O)[C@H](O)[C@@H](O[C@@H]2O[C@H]3CO[C@@H]([C@@H]2O)[C@@H]3O[C@@H]2O[C@H](CO)[C@H](O)[C@H](O[C@@H]3O[C@H]4CO[C@@H]([C@@H]3O)[C@@H]4O[C@@H]3O[C@H](CO)[C@H](O)[C@H](O[C@@H]4O[C@H]5CO[C@@H]([C@@H]4O)[C@@H]5O)[C@H]3O)[C@H]2O)[C@H]1O` [NA6, neoagarohexaose, reference compound] was run?
**A.** no significant effect

**Q.** `O=C[C@@H](O)[C@@H]1OC[C@H](O)[C@H]1O` [L-AHG, 3,6-anhydro-L-galactose] was tested. Which “IL-2 concentration in culture supernatant” value [2] did it give?
**A.** significantly decreased

**Q.** And the “percentage of G1-phase CD4 T cells” value [3, 8]?
**A.** 35.4%

**Q.** What about the “percentage of G2/M phase CD4 T cells” value [3, 8] of the same compound?
**A.** 8.8%

**Q.** What about the “percentage of S-phase CD4 T cells” value [3, 8] of the same compound?
**A.** 54.6%

**Q.** What about the “percentage of CD4 T cells remaining in the G1+S phase without entering G2/M” value ([3]; 100 μg/ml, 30 h after activation, nocodazole from 20 h) of the same compound?
**A.** about 90.0%

**Q.** What about the “apoptotic cell death (proportion of apoptotic sub-G1 cells) in CD4 T cells” value ([3]; 25-100 μg/mL) of the same compound?
**A.** not induced

**Q.** What about the “percentage of CD4 T cells remaining in G1 and S phases without entering G2/M” value ([3]; 25 to 100 μg/ml, nocodazole from 20 h) of the same compound?
**A.** increased in a manner dependent on the concentration

**Q.** What about the “IFN-γ concentration in culture supernatant” value ([4]; 25 μg/mL) of the same compound?
**A.** hardly affected

**Q.** What about the “IFN-γ concentration in culture supernatant” value ([4]; 25, 50, and 100 μg/mL) of the same compound?
**A.** significantly decreased

**Q.** And the “IL-13 concentration in culture supernatant” value [5]?
**A.** significantly decreased

**Q.** And the “IL-4 concentration relative to untreated control group” value ([6]; 25 μg/mL)?
**A.** 38.5%

**Q.** What about the “IL-4 concentration in culture supernatant” value ([6]; 25, 50, and 100 μg/mL) of the same compound?
**A.** significantly decreased

**Q.** And the “effect on the proliferation of activated T cells ([3H]thymidine incorporation)” value ([1]; 12.5 μg/ml, [3H]thymidine added 29 h after activation, 12 h further culture)?
**A.** no significant effect

**Q.** And the “[3H]thymidine incorporation relative to untreated control group” value ([1]; 100 μg/mL)?
**A.** about 22%

**Q.** What about the “effect on [3H]thymidine incorporation” value [1] of the same compound?
**A.** inhibited [^3H]thymidine incorporation in a concentration-dependent manner

**Q.** What about the “[3H]thymidine incorporation” value ([1]; 200 to 400 μg/mL) of the same compound?
**A.** significantly decreased to an unmeasurable level

**Q.** And the “change in the percentage of G1-phase CD8 T cells” value [7, 8]?
**A.** negligible

**Q.** And the “percentage of G2/M CD8 T cells” value [7, 8]?
**A.** 41.8%

**Q.** What about the “percentage of S-phase CD8 T cells” value [7, 8] of the same compound?
**A.** 46.6%

**Q.** What about the “apoptotic cell death (proportion of apoptotic sub-G1 cells) in CD8 T cells” value ([7]; 25-100 μg/mL) of the same compound?
**A.** not induced

**Q.** And the “cell cycle progression after activation of resting CD8 T cells” value ([7]; 25 to 50 μg/mL, nocodazole from 20 h)?
**A.** hardly affected
